Experiment [1] deals with C57BL6/J and p16-3MR mice injured with bleomycin. Nature of the experiment: Bleomycin-induced pulmonary fibrosis in mice. The class given is in vivo, mouse. How it is done: RNA was extracted from cells or tissues using commercially available kits (Isolate II—Bioline for cells; Direct-zol—Zymo for tissues) according to the manufacturer's instructions. cDNA synthesis was performed using a High Capacity cDNA Reverse Transcription Kit (Thermo Fisher) according to the manufacturer's instructions. Quantitative PCR was performed on a LightCycler 480 II (Roche) using primers and probes designed for the Universal Probe Library. Primers and probes used for human transcripts were ACTB: 5′-CCAACCGCGAGAAGATGA (SEQ ID NO:1), 5′-TCCATCACGATGCCAGTG (SEQ ID NO:2), Probe #64; TUBA: 5′-cttcgtctccgccatcag (SEQ ID NO:3), 5′-ttgccaatctggacacca (SEQ ID NO:4), Probe #58; ALOX5: 5′-[…] (SEQ ID NO:5), 5′-[…] (SEQ ID NO:6), Probe #64; ALOX5AP: 5′-ggtctgcggggctacttt (SEQ ID NO:7), 5′-[…] (SEQ ID NO:8), Probe #18; ALOX12: 5′-[…] (SEQ ID NO:9), 5′-agccaggtcgtcaggag (SEQ ID NO:10), Probe #32; ALOX15: 5′-[…] (SEQ ID NO:11), 5′-[…] (SEQ ID NO:12), Probe #76; ALOX15B: 5′-[…] (SEQ ID NO:13), 5′-actgggaggcgaagaagg (SEQ ID NO:14), Probe #51; AKR1C1: 5′-catgcctgtcctgggattt (SEQ ID NO:15), 5′-[…] (SEQ ID NO:16), Probe #49; AKR1C2: 5′-ctatgcgcctgcagaggt (SEQ ID NO:17), 5′-[…] (SEQ ID NO:18), Probe #31; AKR1C3: 5′-[…] (SEQ ID NO:19), 5′-[…] (SEQ ID NO:20), Probe #78; CYSLTR2: 5′-[…] (SEQ ID NO:21), 5′-[…] (SEQ ID NO:22), Probe #18; DPEP1: 5′-gacgtcctgaggctggtg (SEQ ID NO:23), 5′-[…] (SEQ ID NO:24), Probe #9 (SEQ ID NO:25), ELOVL2: 5′-[…] (SEQ ID NO:26), 5′-[…] (SEQ ID NO:27), Probe #53; ELOVL4: 5′-catttggcccatggattc (SEQ ID NO:28), 5′-[…] (SEQ ID NO:29), Probe #31; ELOVL5: 5′-cccttccatgcgtccata (SEQ ID NO:30), 5′-[…] (SEQ ID NO:31), Probe #31; EPHX2: 5′-ttctgctggacaccctgaa (SEQ ID NO:32), 5′-[…] (SEQ ID NO:33), Probe #45; GPX4: 5′-ttcccgtgtaaccagttcg (SEQ ID NO:34), 5′-[…] (SEQ ID NO:35), Probe #36; LTA4H: 5′-ctgctctcacggtccagtc (SEQ ID NO:36), 5′-[…] (SEQ ID NO:37), Probe #64; LTBR2: 5′-[…] (SEQ ID NO:38), 5′-[…] (SEQ ID NO:39), Probe #33; LTC4S: 5′-[…] (SEQ ID NO:40), 5′-[…] (SEQ ID NO:41), Probe #18; PTGDS: 5′-[…] (SEQ ID NO:42), 5′-[…] (SEQ ID NO:43), Probe #36; PTGES: 5′-agagatgcctgcccacag (SEQ ID NO:44), 5′-tggccaccacgtacatctt (SEQ ID NO:45), Probe #4; PTGES2: 5′-[…] (SEQ ID NO:46), 5′-[…] (SEQ ID NO:47), Probe #49; PTGES3 (SEQ ID NO:48), 5′-[…] (SEQ ID NO:49), 5′-[…] (SEQ ID NO:50), Probe #48; PTGIS: 5′-[…] (SEQ ID NO:51), 5′-[…] (SEQ ID NO:52), Probe #45; PTGR1: 5′-atgatggggcagcaagtg (SEQ ID NO:53), 5′-cccatcagaaatggagtgc (SEQ ID NO:54), Probe #64; PTGS1: 5′-[…] (SEQ ID NO:55), 5′-gtggtggtccatgttcctg (SEQ ID NO:56), Probe #81; PTGS2: 5′-gatccccagggctcaaac (SEQ ID NO:57), 5′-[…] (SEQ ID NO:58), Probe #61; TBXAS1: 5′-[…] (SEQ ID NO:59), 5′-tgcctcccgtgtgaatct (SEQ ID NO:60), Probe #73; AREG: 5′-[…] (SEQ ID NO:61), 5′-[…] (SEQ ID NO:62), Probe #73; CCL2: 5′-AGTCTCTGCCGCCCTTCT (SEQ ID NO:63), 5′-GTGACTGGGGCATTGATTG (SEQ ID NO:64), Probe #40; CCL27: 5′-[…] (SEQ ID NO:65), 5′-gctgggtggcagtaggaat (SEQ ID NO:66), Probe #18; CXCL1: 5′-[…] (SEQ ID NO:67), 5′-[…] (SEQ ID NO:68), Probe #52; HGF: 5′-[…] (SEQ ID NO:69), 5′-[…] (SEQ ID NO:70), Probe #49; ILIA: 5′-[…] (SEQ ID NO:71), 5′-[…] (SEQ ID NO:72), Probe #6; IL1B: 5′-[…] (SEQ ID NO:73), 5′-[…] (SEQ ID NO:74), Probe #78; IL6: 5′-[…] (SEQ ID NO:75), 5′-gaaggcagcaggcaacac (SEQ ID NO:76), Probe #45; IL8: 5′-[…] (SEQ ID NO:77), 5′-atggttccttccggtggt (SEQ ID NO:78), Probe #72; IL10: 5′-[…] (SEQ ID NO:79), 5′-[…] (SEQ ID NO:80), Probe #67; MMP3: 5′-[…] (SEQ ID NO:81), 5′-[…] (SEQ ID NO:82), Probe #36; PDGFA: 5′-[…] (SEQ ID NO:83), 5′-[…] […]

Experiment [2] shares this test system. Kind of experiment: Bleomycin-induced pulmonary fibrosis in mice. The class given is in vivo, mouse. The source holds these as a separate data set.
Another experiment concerns IL-6 secretion. Nature of the experiment: IL-6 ELISA on non-senescent cells treated with prostaglandins. The class given is cell-based, human. The following applies: 10 μM, 10 days. How it is done:
Human fetal lung fibroblasts (IMR-90) were cultured in Dulbecco's modified eagle medium (DMEM) supplemented with 10% FBS and penicillin/streptomycin. LL 29 (AnHa) cells were obtained from the ATCC and growth to confluence using the ATCC protocol, but were subcultured as described for IMR-90 before initiation of all experiments. Quiescence was induced by replacing culture media with media containing 0.2% FBS. MCF-7 and MDA-MB-231 breast cancer cells were cultured in RPMI supplemented with 10% FBS and penicillin/streptomycin. All cells were cultured at 3% O2, and used between 25 and 40 population doublings. All cells were mycoplasma free.
3×10^4 cells in 12-well plates were treated as indicated in the text, and cultured in 0.5-1 ml serum-free DMEM for 24 hr. CM were collected and clarified at 2,000×g for 10 min. Supernatants were transferred to a tube; cells were trypsinized and counted. CM (2.5 μl) were analyzed by bead-based ELISAs (AlphaLISA, Perkin-Elmer) as instructed by the manufacturer and normalized to cell number.

The mark [3] stands for this setting: bleomycin-treated animals, day 14, ELISA.

Regarding `CC1(C)CCC(c2ccc(Cl)cc2)=C(CN2CCN(c3ccc(C(=O)NS(=O)(=O)c4ccc(N[C@H](CCN5CCOCC5)CSc5ccccc5)c(S(=O)(=O)C(F)(F)F)c4)cc3)CC2)C1` [ABT-263, 4-[4-[[2-(4-chlorophenyl)-5,5-dimethylcyclohexen-1-yl]methyl]piperazin-1--yl]-N-[4-[[(2R)-4-morpholin-4-yl-1-phenylsulfanylbutan-2-yl]amino]-3-(tri-fluoromethylsulfonyl)phenyl]sulfonylbenzamide], in experiment [1] (14 days after bleomycin injury), the “RNA levels of p16INK4a and p21WAF1 in lungs” value is given as “significantly attenuated”. For the same compound, in experiment [1] (bleomycin-injured mice, 21 days after injury as printed), the “collagen expression (Col3a1 and Col4a1)” value was “reduced”. For the same compound, the “mRNA levels of Alox5, Ltc4s, Ptgs2, Ptgds, and Ptges in lungs” value in experiment [1] (bleomycin-injured mice, day 14) is given as “lowered these levels to those of PBS-treated animals”. Further, the “histological staining of lungs with picrosirius red” value in experiment [2] (21 days after bleomycin) was “attenuation of the fibrotic response”. For the same compound, the “collagen content (hydroxyproline)” value in experiment [2] (21 days after injury) is given as “reduced”. For the same compound, in experiment [2] (setting [3]), the “cysteinyl leukotrienes in bronchioalveolar lavage fluid (BALF)” value is reported as “reduced” and the “prostaglandin E2 in bronchioalveolar lavage fluid (BALF)” value is “reduced”. Also, the “phosphorylation of cPLA2” value in experiment [2] (bleomycin-treated mice, lung, day 14) is on record as “lowered”.
For the compound `CCCCC[C@H](O)/C=C/[C@H]1C=CC(=O)[C@@H]1C/C=C\CCCC(=O)O` [PGA2], the IL-6 secretion result with IL-6 secretion is on record as “elevated”.

The values above are taken from patent US20200371122A1, “BIOMARKER FOR SENESCENT CELLS” (Buck Institute for Research on Aging, priority 2017, published 2020).
